Three compounds from ChEMBL document CHEMBL4699507, “Rhopaladins' analogue (E)-2-aroyl-4-(4-fluorobenzylidene)-5-oxopyrrolidines inhibit proliferation, promote apoptosis and down-regulation of E6/E7 mRNA in cervical cancer” (2020) can be followed below.

For test [1], the system named is Ca-Ski. The experiment in a line: Antiproliferative activity against human CaSki cells assessed as inhibition of cell viability incubated for 48 hrs by MTT assay. The class given is functional, cell-based. As to conditions: dose microM 3.125-100, time 48.0 hrs. On the technique in general: Tetrazolium dyes change colour on reduction, which living cells bring about.

Test [2] can be described thus: Inhibition of Human papillomavirus type 16 derived E7 gene expression in human CaSki cells assessed as fold change in expression at 25 uM measured after 48 hrs by RT-qPCR analysis relative to control. The format is functional, Ca-Ski.
Test [3] concerns Ca-Ski. The experiment in a line: Induction of apoptosis in human CaSki cells assessed as necrotic cells at 50 uM after 48 hrs by Annexin V-FITC/PI double staining based flow cytometric analysis (Rvb =0.075%). The class given is functional.
For test [4], the system named is Ca-Ski. Nature of the test: Antiproliferative activity against human CaSki cells assessed as reduction in cell viability at 3.125-100 uM by MTT assay. The class given is functional, cell-based. As to conditions: dose microM 3.125-100, time hrs 24-72, TDE = time-dependent effect.
Test [5] deals with Ca-Ski. The experiment in a line: Induction of apoptosis in human CaSki cells after 48 hrs by Annexin V-FITC/PI double staining based flow cytometric analysis. The class given is functional, cell-based. To be noted: dose microM 12.5-50, time 48.0 hrs. Background: A flow cytometer gives signals particle by particle.
For test [6], the system named is Ca-Ski. The experiment in a line: Induction of apoptosis in human CaSki cells at 12.5 uM after 48 hrs by Annexin V-FITC/PI double staining based flow cytometric analysis (reference value: 6.25 +/-0.5%). The class given is functional.
In test [7] the test system is Ca-Ski. Nature of the test: Induction of apoptosis in human CaSki cells assessed as viable cells at 12.5 uM after 48 hrs by Annexin V-FITC/PI double staining based flow cytometric analysis (reference value: 93%). The class given is functional. To be noted: read-out: Activity.
Test [8] has as its system Ca-Ski. Nature of the test: Induction of apoptosis in human CaSki cells assessed as early apoptotic cells at 50 uM after 48 hrs by Annexin V-FITC/PI double staining based flow cytometric analysis (Rvb =0.697%). The class given is functional.
Test [9] deals with Ca-Ski. Nature of the test: Induction of apoptosis in human CaSki cells assessed as necrotic cells at 25 uM after 48 hrs by Annexin V-FITC/PI double staining based flow cytometric analysis (Rvb =0.075%). The class given is functional.
Test [10] can be described thus: Inhibition of Human papillomavirus type 16 derived E6 gene expression in human CaSki cells assessed as fold change in expression at 25 uM measured after 48 hrs by RT-qPCR analysis relative to control. The class given is functional, Ca-Ski. (In qPCR the cycle at which signal appears reflects the starting amount.)
Test [11] has as its system Ca-Ski. The experiment in a line: Induction of apoptosis in human CaSki cells assessed as early apoptotic cells at 25 uM after 48 hrs by Annexin V-FITC/PI double staining based flow cytometric analysis (Rvb =0.697%). The class given is functional.
Test [12] can be described thus: Inhibition of Human papillomavirus type 16 derived E7 gene expression in human CaSki cells assessed as fold change in expression at 12.5 uM measured after 48 hrs by RT-qPCR analysis relative to control. The format is functional, Ca-Ski.
Test [13] relates to Ca-Ski. The experiment in a line: Induction of apoptosis in human CaSki cells assessed as late apoptotic cells at 12.5 uM after 48 hrs by Annexin V-FITC/PI double staining based flow cytometric analysis (Rvb =5.59%). The format is functional.
The nature of test [14]: Inhibition of Human papillomavirus type 16 derived E6 gene expression in human CaSki cells assessed as fold change in expression at 50 uM measured after 48 hrs by RT-qPCR analysis relative to control. The class given is functional, Ca-Ski.
Test [15] relates to Ca-Ski. The experiment in a line: Induction of apoptosis in human CaSki cells assessed as viable cells at 50 uM after 48 hrs by Annexin V-FITC/PI double staining based flow cytometric analysis (reference value: 93%). The format is functional. As to conditions: read-out: Activity.
In test [16] the test system is Ca-Ski. Nature of the test: Induction of apoptosis in human CaSki cells assessed as late apoptotic cells at 25 uM after 48 hrs by Annexin V-FITC/PI double staining based flow cytometric analysis (Rvb =5.59%). The class given is functional.
Test [17] is described as follows: Inhibition of Human papillomavirus type 16 derived E7 gene expression in human CaSki cells assessed as fold change in expression at 50 uM measured after 48 hrs by RT-qPCR analysis relative to control. The class given is functional, Ca-Ski.
Test [18] relates to Ca-Ski. Nature of the test: Induction of apoptosis in human CaSki cells assessed as necrotic cells at 12.5 uM after 48 hrs by Annexin V-FITC/PI double staining based flow cytometric analysis (Rvb =0.075%). The class given is functional.
Test [19] in a line: Inhibition of Human papillomavirus type 16 derived E6 gene expression in human CaSki cells assessed as fold change in expression at 12.5 uM measured after 48 hrs by RT-qPCR analysis relative to control. The class given is functional, Ca-Ski.
Test [20] deals with Ca-Ski. Nature of the test: Induction of apoptosis in human CaSki cells assessed as late apoptotic cells at 50 uM after 48 hrs by Annexin V-FITC/PI double staining based flow cytometric analysis (Rvb =5.59%). The class given is functional.
Test [21] deals with Ca-Ski. Nature of the test: Induction of apoptosis in human CaSki cells assessed as early apoptotic cells at 12.5 uM after 48 hrs by Annexin V-FITC/PI double staining based flow cytometric analysis (Rvb =0.697%). The format is functional.
In test [22] the test system is Ca-Ski. The experiment in a line: Induction of apoptosis in human CaSki cells at 50 uM after 48 hrs by Annexin V-FITC/PI double staining based flow cytometric analysis (reference value: 6.25 +/-0.5%). The class given is functional.
For test [23], the system named is Ca-Ski. The experiment in a line: Induction of apoptosis in human CaSki cells at 25 uM after 48 hrs by Annexin V-FITC/PI double staining based flow cytometric analysis (reference value: 6.25 +/-0.5%). The format is functional.
For test [24], the system named is Ca-Ski. The experiment in a line: Induction of apoptosis in human CaSki cells assessed as viable cells at 25 uM after 48 hrs by Annexin V-FITC/PI double staining based flow cytometric analysis (reference value: 93%). The class given is functional. As to conditions: read-out: Activity.

Regarding `CCCCN1C(=O)/C(=C/c2ccc(F)cc2)CC1(C(=O)NC(C)(C)C)C(=O)c1ccc(Cl)cc1` (stereo unspecified), in the test with Ca-Ski [1], the Activity result was “Dose-dependent effect”.
On to `CC(C)N1C(=O)/C(=C/c2ccc(F)cc2)CC1(C(=O)NC(C)(C)C)C(=O)c1ccc(Br)cc1` (stereo unspecified), for which the Activity result in the test on Ca-Ski [1] is “Dose-dependent effect”.
As to `CC(C)N1C(=O)/C(=C/c2ccc(F)cc2)CC1(C(=O)NC(C)(C)C)C(=O)c1ccc(Cl)cc1` (stereo unspecified), the “fold change (FC)” value in [2] was determined as 0.465; in test [10], 0.547; in test [12] it was 0.483; in test [14], 0.354; in test [17] it was 0.432; in test [19] it was 0.653. In addition, the Activity in the test with Ca-Ski [3] is 0.217%; with Ca-Ski [1] it was “Dose-dependent effect”; with Ca-Ski [4], “Tde”; in the test on Ca-Ski [5] it was “Dose-dependent effect”; in the test with Ca-Ski [6] it was 15.6%; with Ca-Ski [8] it was 26.2%. The Activity was found to be 0.105% in the test on Ca-Ski [9]; 14.9% in the test on Ca-Ski [11]; 6.24% in the test with Ca-Ski [13]; 9.65% in the test with Ca-Ski [16]; 0.18% in the test with Ca-Ski [18]; 15% in the test with Ca-Ski [20]. Moreover, the Activity worked out at 8.2% with Ca-Ski [21], 41.2% in the test with Ca-Ski [22] and 23.56% in the test on Ca-Ski [23]. Further, the viability at 12.5 µM with Ca-Ski [7] was found to be 85.4%. Further, the viability at 50 µM in the test with Ca-Ski [15] is 58.5%. In addition, in the test on Ca-Ski [24], the viability at 25 µM amounted to 75.3%.
